Structures can show the parent of a compound that is named as a salt.
Key:
S1P2 = molecular target: T1, S1P2 (Homo sapiens, UniProt O95136); test: GLISA RhoA activation - antagonist assay; assay type: cell-based; conditions: CHO-S1P2-FL cells; for inhibition at 1 µM: 1 μM compound; for IC50: 1 hour compound incubation, then for 5 min
T1 construct: Flag; expressed in transfected cells; host or cells: Chinese hamster ovary (CHO) cells, doxycycline-inducible (CHO-S1P2-FL / CHO-S1PR2 FL)
Experimental: GLISA RhoA Activation—Antagonist Assay
GLISA assays were performed using RhoA (BK124) activation kit purchased from Cytoskeleton Inc., Denver, CO Doxycycline-inducible Flag-tag S1P2 expressing Chinese hamster ovary (CHO) cells (CHO-S1P2-FL) were seeded in a 6-well plate, 1.5×10^5 cells per well. Cells were stimulated with […] of Doxycycline to induce S1P2 expression in serum free IMDM media with 0.1% BSA/PBS. Following day, cells were stimulated with the compounds described herein (1 nM-10 μM) or 1 μM JTE-013 for 1 hour at 37° C. Following compound incubation, cells were washed with PBS×3 and induced with 100 nM […] for 5 min. […] Protein concentration was examined using GLISA—Precision Red Advanced Protein assay reagent as described in assay manual. Lysates were immobilized on GTP-bound capture plate and GLISA assay was performed based on manufacture recommendations as reported previously.

S1PR2 = S1PR2 (Homo sapiens, UniProt O95136); test: FLIPR calcium activation - antagonist assay; assay type: cell-based; design: Flag; expressed in transfected cells; host or cells: Chinese hamster ovary (CHO) cells, doxycycline-inducible (CHO-S1P2-FL / CHO-S1PR2 FL); conditions: CHO-S1PR2 FL cells, 1 hour compound incubation
Experimental: FLIPR Calcium Activation—Antagonist Assay
An assay was performed using Fluo-4 NW Calcium activation kit (#F36206) purchased from Molecular Probes/Life Technologies, Grand Island, NY. Calcium assay was performed according to the manufacturer's instructions. Briefly, CHO-S1PR2 FL cells (5×10^4 cells (for 384 well plate) or 7.5×10^4 cells (for 96 well plate)) were seeded 24 hours prior to experiment in serum free IMDM media supplemented with 0.1% fatty acid free BSA/PBS (SFM). After starvation, cells were stimulated with the compounds described herein (1 nM-10 μM) for 1 hour in SFM at room temperature. Cells were then washed with PBS and prepared for Calcium induction assay as instructed in Fluo-4 NW Calcium activation kit protocol. For calcium induction, 100 nM […] or 1 μM ATP were added in ligand plate places in the Hamamatsu FDSS6000 drug screening system. Ligand was added in 15 seconds intervals for 15 min and signal ratio of […] was measured using the Hamamatsu FDSS6000 instrument.

Sequence of S1PR2 (O95136 whole entry, species assumed): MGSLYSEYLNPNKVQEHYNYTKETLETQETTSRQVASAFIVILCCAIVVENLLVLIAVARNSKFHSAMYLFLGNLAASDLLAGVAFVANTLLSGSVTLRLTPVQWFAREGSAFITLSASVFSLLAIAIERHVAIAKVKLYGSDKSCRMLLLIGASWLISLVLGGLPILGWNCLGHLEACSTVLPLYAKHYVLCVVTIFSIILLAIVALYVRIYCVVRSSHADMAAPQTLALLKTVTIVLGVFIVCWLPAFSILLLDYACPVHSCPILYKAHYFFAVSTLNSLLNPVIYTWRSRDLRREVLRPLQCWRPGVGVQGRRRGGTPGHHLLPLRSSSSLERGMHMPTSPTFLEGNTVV
T1 sequence (O95136 whole entry, species assumed): as above

COc1cc(Br)cn(CC(=O)c2cnn(Cc3ccccc3)c2C)c1=O [Example 41, 1-(2-(1-Benzyl-5-methyl-1H-pyrazol-4-yl)-2-oxoethyl)-5-bromo-3-methoxypyridin-2(1H)-one] showed an inhibition at 1 µM (S1P2) of 63% and an IC50 (S1PR2) of 694 nM.

In the case of Cc1c(C(=O)Cn2cc(Br)ccc2=O)cnn1Cc1ccccc1 [Compound 27, 1-(2-(1-benzyl-5-methyl-1H-pyrazol-4-yl)-2-oxoethyl)-5-bromopyridin-2(1H)-one], the inhibition at 1 µM (S1P2) is reported as 92%, the IC50 (S1P2) is reported as 4.9 nM and the IC50 (S1PR2) is reported as 11 nM.

C#Cc1ccc(=O)n(CC(=O)c2cc(C)n(Cc3ccccc3)c2C)c1 [Compound 3, 1-(2-(1-benzyl-2,5-dimethyl-1H-pyrrol-3-yl)-2-oxoethyl)-5-ethynylpyridin-2(1H)-one] gave an inhibition at 1 µM (S1P2) of 69%, an IC50 (S1P2) of 134 nM and an IC50 (S1PR2) of 89 nM.

In the case of Cc1c(C(=O)Cn2cc(Br)ccc2=O)cnn1Cc1cccc(C(=O)O)c1 [Compound 32, 3-((4-(2-(5-bromo-2-oxopyridin-1(2H)-yl)acetyl)-5-methyl-1H-pyrazol-1-yl)methyl)benzoic acid], the inhibition at 1 µM (S1P2) is reported as < 10% and the IC50 (S1PR2) is reported as 8700 nM.

Cc1cc(C(=O)Cn2cc(Br)ccc2=O)c(C)n1Cc1ccccc1 [Compound 1, 1-(2-(1-benzyl-2,5-dimethyl-1H-pyrrol-3-yl)-2-oxoethyl)-5-bromopyridin-2(1H)-one] showed an inhibition at 1 µM (S1P2) of 87%, an IC50 (S1P2) of 52 nM and an IC50 (S1PR2) of 58 nM.

C=Cc1ccc(=O)n(CC(=O)c2cnn(Cc3ccccc3)c2C)c1 [Compound 34, 1-(2-(1-benzyl-5-methyl-1H-pyrazol-4-yi)-2-oxoethyl)-5-vinylpyridin-2(1H)-one] showed an inhibition at 1 µM (S1P2) of 79%, an IC50 (S1P2) of 82 nM and an IC50 (S1PR2) of 150 nM.

Work on Cc1cc(=O)n(CC(=O)c2cnn(Cc3ccccc3)c2C)cc1Br [Example 40, 1-(2-(1-Benzyl-5-methyl-1H-pyrazol-4-yl)-2-oxoethyl)-5-bromo-4-methylpyridin-2(1H)-one] yielded an inhibition at 1 µM (S1P2) of 67% and an IC50 (S1PR2) of 395 nM.

Compound C#Cc1cc(C)c(=O)n(CC(=O)c2cnn(Cc3ccccc3)c2C)c1 [Example 42, 1-(2-(1-Benzyl-5-methyl-1H-pyrazol-4-yl)-2-oxoethyl)-5-ethynyl-3-methylpyridin-2(1H)-one] has an inhibition at 1 µM (S1P2) of 64% and an IC50 (S1PR2) of 567 nM.

Cc1c(C(=O)Cn2cc(Br)ccc2=O)cnn1Cc1cccnc1 [Compound 33, 5-bromo-1-(2-(5-methyl-1-(pyridin-3-ylmethyl)-1H-pyrazol-4-yl)-2-oxoethyl)pyridin-2(1H)-one] was tested, and the inhibition at 1 µM (S1P2) was 14% and the IC50 (S1PR2) was 5600 nM.

Work on Cc1cc(Br)cn(CC(=O)c2cnn(Cc3ccccc3)c2C)c1=O [Example 39, 1-(2-(1-Benzyl-5-methyl-1H-pyrazol-4-yl)-2-oxoethyl)-5-bromo-3-methylpyridin-2(1H)-one] yielded an inhibition at 1 µM (S1P2) of 69% and an IC50 (S1PR2) of 364 nM.

For C#Cc1ccc(=O)n(CC(=O)c2cnn(Cc3ccccc3)c2C)n1 [Example 43, 2-(2-(1-Benzyl-5-methyl-1H-pyrazol-4-yl)-2-oxoethyl)-6-ethynylpyridazin-3(2H)-one], the inhibition at 1 µM (S1P2) was 70%, the IC50 (S1P2) was 200 nM and the IC50 (S1PR2) was 297 nM.

C#Cc1ccc(=O)n(CC(=O)c2cnn(Cc3ccccc3)c2C)c1 [Compound 29, 1-(2-(1-benzyl-5-methyl-1H-pyrazol-4-yl)-2-oxoethyl)-5-ethynylpyridin-2(1H)-one] showed an inhibition at 1 µM (S1P2) of 79%, an IC50 (S1P2) of 69 nM and an IC50 (S1PR2) of 23 nM.

In the case of Cc1cc(C(=O)C(C)n2cc(Br)ccc2=O)c(C)n1Cc1ccccc1 (stereo not shown) [Compound 4, 1-(1-(1-benzyl-2,5-dimethyl-1H-pyrrol-3-yl)-1-oxopropan-2-yl)-5-bromopyridin-2(1H)-one], the inhibition at 1 µM (S1P2) is reported as 86% and the IC50 (S1P2) is reported as 26 nM.

In the case of Cc1cc(C(=O)Cn2cc(C#N)ccc2=O)c(C)[nH]1 [Example 47, 1-(2-(2,5-Dimethyl-1H-pyrrol-3-yl)-2-oxoethyl)-6-oxo-1,6-dihydropyridine-3-carbonitrile], the IC50 (S1P2) is reported as > 10000 nM.

In the case of COc1cccc(Cn2c(C)cc(C(=O)C(C)n3cc(Br)ccc3=O)c2C)c1 (stereo not shown) [Example 60, 5-Bromo-1-(1-(1-(3-methoxybenzyl)-2,5-dimethyl-1H-pyrrol-3-yl)-1-oxopropan-2-yl)pyridin-2(1H)-one], the inhibition at 1 µM (S1P2) is reported as < 10%.

C#Cc1ccc(=O)n(C(C)C(=O)c2cnn(Cc3ccc(F)cc3)c2C)n1 (stereo not shown) [Example 74, 6-Ethynyl-2-(1-(1-(4-fluorobenzyl)-5-methyl-1H-pyrazol-4-yl)-1-oxopropan-2-yl)pyridazin-3(2H)-one] was tested, and the IC50 (S1P2) was 46 nM.

Work on C=C(F)c1ccc(=O)n(CC(=O)c2cnn(Cc3ccccc3)c2C)c1 [Example 83] yielded an IC50 (S1P2) of 82 nM.

Cc1cc(C(=O)C(C)n2cc(Br)ccc2=O)c(C)n1CC1CCC1 (stereo not shown) [Example 59, 5-Bromo-1-(1-(1-(cyclobutylmethyl)-2,5-dimethyl-1H-pyrrol-3-yl)-1-oxopropan-2-yl)pyridin-2(1H)-one] was tested, and the inhibition at 1 µM (S1P2) was < 10%.

Cc1cc(C(=O)C(C)n2cc(Br)ccc2=O)c(C)n1Cc1ccccc1C#N (stereo not shown) [Compound 17, 2-((3-(2-(5-bromo-2-oxopyridin-1(2H)-yl)propanoyl)-2,5-dimethyl-1H-pyrrol-1-yl)methyl)benzonitrile] was tested, and the inhibition at 1 µM (S1P2) was 63%.

In the case of Cc1cc(C(=O)C(Cc2ccc(-c3ccccc3)cc2)n2cc(C#N)ccc2=O)c(C)[nH]1 (stereo not shown) [Example 48, 1-(3-((1,1′-Biphenyl)-4-yl)-1-(2,5-dimethyl-1H-pyrrol-3-yl)-1-oxopropan-2-yl)-6-oxo-1,6-dihydropyridine-3-carbonitrile], the IC50 (S1P2) is reported as > 10000 nM.

Work on Cc1c(C(=O)Cn2cc(C#N)cc(C#N)c2=O)cnn1Cc1ccccc1 [Example 69, 1-(2-(1-Benzyl-5-methyl-1H-pyrazol-4-yl)-2-oxoethyl)-2-oxo-1,2-dihydropyridine-3,5-dicarbonitrile] yielded an IC50 (S1P2) of 50 nM.

C#Cc1ccc(=O)n(Cc2nccc3c2cnn3Cc2ccccc2)c1 [Compound 131, 1-((1-benzyl-1H-pyrazolo[4,3-c]pyridin-4-yl)methyl)-5-ethynylpyridin-2(1H)one hydrochloride] gave an IC50 (S1P2) of 58 nM.

In the case of Cc1cc(C(=O)Cn2cc(C(C)(C)C)ccc2=O)c(C)n1Cc1ccccc1 [Example 53, 1-(2-(1-Benzyl-2,5-dimethyl-1H-pyrrol-3-yl)-2-oxoethyl)-5-(tert-butyl)pyridin-2(1H)-one], the IC50 (S1P2) is reported as > 10000 nM.

With C=Cc1ccc(=O)n(CC(=O)c2cnn(Cc3ccccc3)c2C(F)(F)F)c1 [Example 82, 1-(2-(1-Benzyl-5-(trifluoromethyl)-1H-pyrazol-4-yl)-2-oxoethyl)-5-vinylpyridin-2(1H)-one] the IC50 (S1P2) was 74 nM.

Cc1cc(C(=O)C(C)n2cc(Br)ccc2=O)c(C)n1CC1CCOCC1 (stereo not shown) [Compound 10, 5-bromo-1-(1-(2,5-dimethyl-1-((tetrahydro-2H-pyran-4-yl)methyl)-1H-pyrrol-3-yl)-1-oxopropan-2-yl)pyridin-2(1H)-one] gave an inhibition at 1 µM (S1P2) of 39%.

Cc1cc(C(=O)C(C)n2cc(Br)ccc2=O)c(C)n1Cc1ccc(F)c(F)c1 (stereo not shown) [Compound 20, 5-bromo-1-(1-(1-(3,4-difluorobenzyl)-2,5-dimethyl-1H-pyrrol-3-yl)-1-oxopropan-2-yl)pyridn-2(1H)-one] was tested, and the inhibition at 1 µM (S1P2) was 46%.

In the case of Cc1cccc(Cn2c(C)cc(C(=O)C(C)n3cc(Br)ccc3=O)c2C)c1 (stereo not shown) [Example 63, 5-Bromo-1-(1-(2,5-dimethyl-1-(3-methylbenzyl)-1H-pyrrol-3-yl)-1-oxopropan-2-yl)pyridin-2(1H)-one], the inhibition at 1 µM (S1P2) is reported as 17%.
